Seven compounds from patent publication US20220289751A1, “COMPOUND HAVING KDM5 INHIBITORY ACTIVITY AND PHARMACEUTICAL USE THEREOF” (ONO PHARMACEUTICAL CO., LTD., priority 2019, published 2022) can be followed below.

Where two headings read alike, the source gives them in different places.

Broadly, the IC50 is the point on the concentration scale where inhibition reaches its midpoint.

For one series, the system named is Wild type MDCKII cells. In words: Permeability in wild type MDCK cell lines (MDCK-WT). In kind it is in vitro ADME. Particulars: apical to basal, 10 μM test compound, 60 min, pH 7.4. The protocol: (§1) Wild type MDCKII cells were seeded onto an apical chamber 3 days prior to running the assay at a density of 2.3×10^5 cells per well. The integrity of cell monolayers was evaluated by examining the permeability of lucifer yellow assay using a Spectramax Gemini XS with excitation and emission at 426 nm and 538 nm respectively. Permeation of Lucifer Yellow should be ≤10×10^−6 cm/s for the experimental data to be accepted. The cell monolayers were preincubated in transport buffer (HBSS with CaCl2 and MgCl2)+25 mM HEPES, adjust to pH 7.4) at 37° C. or more than 20 min. Transport experiment was initiated by adding test compound solution (10 μM) to the apical chamber. Samples were obtained from basal chamber at 60 min, followed by addition of ice-cold acetonitrile containing internal standard. LC-MS/MS analysis was conducted as specified below. Standard calibration samples were prepared using the same matrix and analysed in the same manner. [table] […] Papp(cm/s)=(dCB/dt)×VB/(A×CA) dCB/dt is the slope of the cumulative concentration in basal side versus time VB is the volume of the basal compartment A is the area of the membrane surface area CA is the initial concentration in apical side

The target of a further series is T1, KDM5A protein (Homo sapiens, UniProt P29375).
T1 construct: purchased BPS Bioscience 50110
In words: Biochemical KDM5A inhibition assay (HTRF). On the procedure: Using 384-well white ProxiPlates (PerkinElmer), representative compounds were characterized for their inhibition of KDM5A using HTRF® technology (Cisbio Bioassays). Briefly, the test compounds, reference compounds, and DMSO control (typical compound concentration range 300 pM-10 μM, final assay concentration (FAC) of DMSO 0.5%) were added to 384-well plate by the Echo® acoustic dispensing platform (Labcyte). Three (3) μ1 of KDM5A protein (BPS Bioscience, Cat #50110)(10 or 20 nM FAC) in assay buffer (50 mM MES, 50 mM NaCl, 2 mM ascorbic acid, 0.01% v/v Tween 20, pH 6.5) was added to wells and plates were incubated for 10 minutes at room temperature. Then, 3 μl of biotin-labelled H3K4-me3 substrate (Anaspec Cat #AS-64357-1; 100 nM FAC), alpha-ketoglutaric acid ([…]) and Fe(II)SO4 (FAC 100 μM) in assay buffer was added and plates were incubated for 60 minutes at room temperature. The reaction was stopped with the addition of 6 μl of anti-H3-[…]-Eu(K) (Cisbio Bioassays Cat #61KA2KAE; 0.025 μg/ml FAC)+Streptavidin XL665 (Cisbio Bioassays Cat #610SAXLA; 0.5 μg/ml FAC) in HTRF detection buffer (Cisbio Bioassays Cat #62SDBRDD). The mixture was incubated for 90 minutes at room temperature before 340 nm excitation and measurement of dual emission at 620 nm and 665 nm. The raw data (a 665 nm and a 620 nm reading from each well) for individual assay plates were analyzed. The ratio of emissions was calculated using the following calculation: Ratio=(665 nm emission/620 nm emission)*10000. Using DMSO control (maximum response or 0% inhibition) and 1 μM reference control compound (minimum response or 100% inhibition), percentage inhibition values for each well were calculated using the median values of the minimum and maximum control wells and the following calculation: % Inhibition=(Well ratio-max control ratio)/(min control ratio-max control ratio)*100. Compound IC50 values were calculated from graphs of % inhibition plotted against compound concentration, using a four parameter curve fit.
(In general: TR-FRET usually uses a lanthanide donor and a delayed reading to cut background.)

The nature of series [1]: Permeability in wild type MDCK cell lines (MDCK-WT). The class given is in vitro ADME. Conditions: dog, MDCK, pH 7.4, apical to basal, 10 μM test compound. On the procedure:
as §1

Where [2] appears, read: 20 nM enzyme concentration, read-out: IC50 value.

T1 sequence (P29375 whole entry): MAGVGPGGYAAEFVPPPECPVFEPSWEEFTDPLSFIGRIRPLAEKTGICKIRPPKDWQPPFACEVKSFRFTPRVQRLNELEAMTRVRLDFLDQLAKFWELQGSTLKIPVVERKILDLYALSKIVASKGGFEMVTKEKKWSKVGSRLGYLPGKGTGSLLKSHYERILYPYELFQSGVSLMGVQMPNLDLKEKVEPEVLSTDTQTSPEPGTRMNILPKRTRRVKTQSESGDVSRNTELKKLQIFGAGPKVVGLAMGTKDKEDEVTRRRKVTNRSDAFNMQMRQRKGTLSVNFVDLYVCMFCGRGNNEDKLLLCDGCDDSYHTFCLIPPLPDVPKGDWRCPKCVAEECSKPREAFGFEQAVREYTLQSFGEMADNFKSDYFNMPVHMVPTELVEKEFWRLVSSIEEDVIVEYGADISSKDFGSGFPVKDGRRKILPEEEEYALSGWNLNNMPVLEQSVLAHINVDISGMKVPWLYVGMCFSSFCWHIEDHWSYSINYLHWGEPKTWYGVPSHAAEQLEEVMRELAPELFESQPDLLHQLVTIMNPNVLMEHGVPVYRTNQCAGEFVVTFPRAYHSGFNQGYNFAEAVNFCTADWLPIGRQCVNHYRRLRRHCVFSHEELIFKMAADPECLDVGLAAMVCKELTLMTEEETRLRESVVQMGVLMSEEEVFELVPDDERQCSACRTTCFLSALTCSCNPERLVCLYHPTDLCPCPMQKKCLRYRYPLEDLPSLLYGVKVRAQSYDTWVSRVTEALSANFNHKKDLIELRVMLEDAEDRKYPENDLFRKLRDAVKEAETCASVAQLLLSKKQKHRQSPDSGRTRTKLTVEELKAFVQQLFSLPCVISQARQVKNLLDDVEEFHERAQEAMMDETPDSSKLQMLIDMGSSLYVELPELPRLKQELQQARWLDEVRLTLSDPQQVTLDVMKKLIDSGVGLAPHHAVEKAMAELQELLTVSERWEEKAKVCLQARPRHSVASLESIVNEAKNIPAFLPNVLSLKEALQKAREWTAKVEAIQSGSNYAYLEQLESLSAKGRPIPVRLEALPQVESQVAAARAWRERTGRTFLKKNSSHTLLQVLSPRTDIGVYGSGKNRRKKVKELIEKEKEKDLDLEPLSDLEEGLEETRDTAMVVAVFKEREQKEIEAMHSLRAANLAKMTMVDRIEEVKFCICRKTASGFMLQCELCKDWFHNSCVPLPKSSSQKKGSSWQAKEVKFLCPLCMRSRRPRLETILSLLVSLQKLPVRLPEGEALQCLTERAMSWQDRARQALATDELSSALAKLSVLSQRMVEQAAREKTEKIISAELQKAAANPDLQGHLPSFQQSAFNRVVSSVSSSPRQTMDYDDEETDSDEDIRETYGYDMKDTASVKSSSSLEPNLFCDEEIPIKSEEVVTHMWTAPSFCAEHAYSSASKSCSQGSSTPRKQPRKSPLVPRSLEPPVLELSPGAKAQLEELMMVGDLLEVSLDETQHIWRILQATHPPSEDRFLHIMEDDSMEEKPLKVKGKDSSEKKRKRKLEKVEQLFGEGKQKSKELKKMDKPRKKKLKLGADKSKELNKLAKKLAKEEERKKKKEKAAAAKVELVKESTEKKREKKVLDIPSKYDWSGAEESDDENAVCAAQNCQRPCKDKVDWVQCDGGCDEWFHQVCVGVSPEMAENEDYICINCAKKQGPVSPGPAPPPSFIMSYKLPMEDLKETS

In the case of `Cc1onc([C@H]2[C@@H]3CN(C(=O)c4cc(C(C)C)[nH]n4)C[C@@H]32)c1-c1ccccc1` [EXAMPLE 134, (5-Isopropyl-1H-pyrazol-3-yl)((1R,5S,6r)-6-(5-methyl-4-phenylisoxazol-3-yl)-3-azabicyclo[3.1.0]hexan-3-yl)methanone], the “MDCK-WT (Papp) [10^−6 cm/s]” value in the series with Wild type MDCKII cells is listed as 24 10^−6 cm/s.

For `CC(C)c1cc(C(=O)N2C[C@@H]3[C@H](C2)[C@H]3C(=O)C2CC2)n[nH]1` [EXAMPLE 94, ((1R,5S,6r)-6-(cyclopropanecarbonyl)-3-azabicyclo[3.1.0]hexan-3-yl)(5-isopropyl-1H-pyrazol-3-yl)methanone], the IC50 at KDM5A protein (* measured at 10 nM enzyme concentration, read-out: IC50 value) was found to be 1.5 µM. For the same compound, in series [1] (read-out: MDCK-WT (Papp)), the Papp A→B at 60 min, 10 μM is 680 nm/s. As for `CC(C)c1c(-c2cnn(CC3CC3)c2)[nH]c2c(C#N)cnn2c1=O` [5-(1-(cyclopropylmethyl)-1H-pyrazol-4-yl)-6-isopropyl-7-oxo-4,7-dihydropyrazolo[1,5-a]pyrimidine-3-carbonitrile, reference compound], the half-maximal inhibitory concentration (IC50) at KDM5A protein (comparative compounds, enzyme concentration not stated, read-out: IC50 values (μM) of comparative compound) was 0.005 µM. Besides, in series [1] (comparative compounds, read-out: permeabilities in MDCK-WT of comparative compound), the Papp A→B at 60 min, 10 μM was determined as 56 nm/s. For the compound `CC(C)c1cc(C(=O)N2C[C@@H]3[C@H](C2)[C@H]3C(=O)N2CCCC2(C)C)n[nH]1` [EXAMPLE 131, (2,2-Dimethylpyrrolidin-1-yl)((1R,5S,6r)-3-(5-isopropyl-1H-pyrazole-3-carbonyl)-3-azabicyclo[3.1.0]hexan-6-yl)methanone], the “MDCK-WT (Papp) [10^−6 cm/s]” value in the series with Wild type MDCKII cells is 20 10^−6 cm/s. With `O=C(NC1CN(C(=O)c2cc(C3CC3)[nH]n2)C1)C1CC12CC2` (single isomer, unassigned) [EXAMPLE 105, N-(1-(5-cyclopropyl-1H-pyrazole-3-carbonyl)azetidin-3-yl)spiro[2.2]pentane-1-carboxamide], in the series with Wild type MDCKII cells, the “MDCK-WT (Papp) [10^−6 cm/s]” value is reported as 6 10^−6 cm/s. For `CC(C)n1c(-c2ccc3c(ccn3C)c2)nn2c(-c3cn[nH]c3)cnc2c1=O` [EXAMPLE 21, 3-Isopropyl-2-(1-methyl-1H-indol-5-yl)-7-(1H-pyrazol-4-yl)imidazo[2,1-f][1,2,4]triazin-4(3H)-one], the IC50 on KDM5A protein (setting [2]) is 0.04 µM. For the same compound, the Papp A→B at 60 min, 10 μM in series [1] (read-out: MDCK-WT (Papp)) came out at 100 nm/s. The matching figures for `CC(C)c1c(-c2ccccc2)[nH]n2c(C#N)cnc2c1=O` [EXAMPLE 95, 7-Isopropyl-8-oxo-6-phenyl-5,8-dihydroimidazo[1,2-b]pyridazine-3-carbonitrile]: 0.4 µM and 660 nm/s.
